Literature values as cited in patent US6034057A, “Peptide inhibitors of fibronectine” (Zeneca Limited, priority 1995, dated 2000).
Bridge positions count the residues as written; N and C are the ends. Ends that are not written are not given here. * marks the point of attachment. Acetyl(1-adamantyl) = O=C(CC12CC3CC(CC(C3)C1)C2)*

Assays:
αIIbβ IIIa = αIIbβ IIIa (Homo sapiens, UniProt P05106+P08514)
αvβ3 = αvβ3 (Homo sapiens, UniProt P05106+P06756)
fibronectin [1] = test system: fibronectin
fibronectin [2] = test system: fibronectin; remark: listed apart in the source
[3] = test system: 120 kDa chymotryptic fragment of fibronectin

Sequence of αvβ3 (P06756 31-889 limits assumed): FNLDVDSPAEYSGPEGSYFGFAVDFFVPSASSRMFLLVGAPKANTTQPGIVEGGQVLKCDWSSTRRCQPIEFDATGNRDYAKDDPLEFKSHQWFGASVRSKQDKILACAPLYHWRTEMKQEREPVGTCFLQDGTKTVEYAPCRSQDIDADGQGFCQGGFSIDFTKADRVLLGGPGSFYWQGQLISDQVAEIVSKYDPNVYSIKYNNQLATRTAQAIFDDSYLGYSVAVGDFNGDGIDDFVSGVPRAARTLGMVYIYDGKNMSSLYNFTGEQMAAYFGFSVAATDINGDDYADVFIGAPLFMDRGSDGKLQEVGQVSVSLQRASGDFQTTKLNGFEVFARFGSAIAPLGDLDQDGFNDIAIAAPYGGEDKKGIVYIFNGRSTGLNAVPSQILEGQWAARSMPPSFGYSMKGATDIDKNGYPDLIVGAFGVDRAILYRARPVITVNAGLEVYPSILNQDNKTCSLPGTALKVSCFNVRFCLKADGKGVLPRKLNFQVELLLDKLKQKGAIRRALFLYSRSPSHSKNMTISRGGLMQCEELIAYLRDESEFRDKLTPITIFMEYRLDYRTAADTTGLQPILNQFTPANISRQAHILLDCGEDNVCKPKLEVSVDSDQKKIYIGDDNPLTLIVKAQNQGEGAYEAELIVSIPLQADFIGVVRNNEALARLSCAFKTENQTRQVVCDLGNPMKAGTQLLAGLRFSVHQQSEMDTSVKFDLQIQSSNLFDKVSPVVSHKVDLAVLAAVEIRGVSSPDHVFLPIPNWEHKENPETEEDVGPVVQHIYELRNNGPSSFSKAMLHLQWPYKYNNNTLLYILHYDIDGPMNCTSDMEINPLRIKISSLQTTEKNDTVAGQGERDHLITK
Sequence of αvβ3 (P06756 891-1048 partner limits assumed): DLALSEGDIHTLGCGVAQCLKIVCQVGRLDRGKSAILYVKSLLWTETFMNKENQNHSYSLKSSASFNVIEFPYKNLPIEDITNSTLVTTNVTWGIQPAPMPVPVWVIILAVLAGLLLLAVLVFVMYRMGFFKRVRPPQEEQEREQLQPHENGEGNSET
Sequence of αvβ3 (P05106 27-788): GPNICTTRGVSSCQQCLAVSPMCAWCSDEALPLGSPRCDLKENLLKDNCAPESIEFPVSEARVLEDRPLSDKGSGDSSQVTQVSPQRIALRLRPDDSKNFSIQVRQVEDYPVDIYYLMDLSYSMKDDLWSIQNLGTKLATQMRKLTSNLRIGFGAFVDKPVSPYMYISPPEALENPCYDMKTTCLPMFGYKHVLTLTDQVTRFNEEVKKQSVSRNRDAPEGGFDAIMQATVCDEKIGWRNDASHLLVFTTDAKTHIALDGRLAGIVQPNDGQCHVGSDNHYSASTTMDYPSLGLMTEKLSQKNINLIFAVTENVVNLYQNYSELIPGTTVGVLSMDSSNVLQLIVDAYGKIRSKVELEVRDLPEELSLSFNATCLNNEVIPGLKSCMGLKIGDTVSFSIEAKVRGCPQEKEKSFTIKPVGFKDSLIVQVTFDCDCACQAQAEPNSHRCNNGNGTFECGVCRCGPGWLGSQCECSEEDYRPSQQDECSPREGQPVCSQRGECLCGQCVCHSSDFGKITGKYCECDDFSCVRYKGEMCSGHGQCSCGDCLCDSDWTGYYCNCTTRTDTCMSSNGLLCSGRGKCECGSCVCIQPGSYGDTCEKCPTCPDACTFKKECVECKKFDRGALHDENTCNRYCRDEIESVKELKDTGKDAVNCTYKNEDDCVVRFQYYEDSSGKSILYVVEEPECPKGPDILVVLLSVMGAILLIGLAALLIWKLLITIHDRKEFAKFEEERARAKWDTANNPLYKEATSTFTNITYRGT

**Q.** With “1-adamantaneacetyl-Cys-Gly-Arg-Gly-Asp-Ser-Pro-Cys ({Acetyl(1-adamantyl)}-CGRGDSPC; disulfide 1-8 (inferred))” as the substance, how does the “inhibition of function in αIIbβ IIIa-dependent assay” value (αIIbβ IIIa) read?
**A.** inhibited function

**Q.** What about the “inhibition of function in αvβ3-dependent assay” value (αvβ3) of the same substance?
**A.** inhibited function

**Q.** What about the “inhibition of binding of Jurkat cells to fibronectin coated plates” value (fibronectin [1]) of the same substance?
**A.** inhibited the binding of Jurkat cells to fibronectin coated plates

**Q.** With Arg-Cys-Asp-thioproline-Cys as the substance, how does the “inhibition of leukocyte cell adhesion to fibronectin” value (fibronectin [2]) read?
**A.** inhibitor of leukocyte cell adhesion to fibronectin

**Q.** And the “inhibition of binding to the 120 kDa chymotryptic fragment of fibronectin” value [3]?
**A.** inhibited the binding to the 120 kDa chymotryptic fragment of fibronectin
